# Target: human V1a receptor (Homo sapiens (Human), UniProt P37288)
# Experiment: human V1a receptor binding studies (3H-Vasopressin, SPA beads)
# Settings: membranes of HEK293 cells transiently transfected with human V1a receptor, Ki by Cheng-Prusoff
# Experimental: The human V1a receptor was cloned by RT-PCR from total human liver RNA. The coding sequence was subcloned in an expression vector after sequencing to confirm the identity of the amplified sequence. […] Cell membranes were prepared from HEK293 cells transiently transfected with the expression vector and grown in 20 liter fermenters with the following protocol.
# 50 g of cells are re-suspended in 30 ml freshly prepared ice cold Lysis buffer ([…] HEPES. 1 mM EDTA, 10 mM MgCl2 adjusted to pH=7.4+complete cocktail of protease inhibitor (Roche Diagnostics)). Homogenized with Polytron for 1 min and sonicated on ice for 2×2 minutes at 80% intensity (Vibracell sonicator). The preparation is centrifuged 20 min at 500 g at 4° C., the pellet is discarded and the supernatant centrifuged 1 hour at 43'000 g at 4° C. (19'000 rpm). The pellet is re-suspended in 12.5 ml Lysis buffer+12.5 ml Sucrose 20% and homogenized using a Polytron for 1-2 min. The protein concentration is determined by the Bradford method and aliquots are stored at −80° C. until use. For binding studies 60 mg Yttrium silicate SPA beads (Amersham) are mixed with an aliquot of membrane in binding buffer (50 mM Tris, 120 mM NaCl, 5 mM KCl, 2 mM CaCl2, 10 mM MgCl) for 15 minutes with mixing. 50 μl of bead/membrane mixture is then added to each well of a 96 well plate, followed by […] of 4 nM 3H-Vasopressin (American Radiolabeled Chemicals). For total binding measurement 100 μl of binding buffer are added to the respective wells, for non-specific binding 100 μl of […] cold vasopressin and for compound testing 100 μl of a serial dilution of each compound in 2% DMSO. The plate is incubated 1 h at room temperature, centrifuged 1 min at 1000 g and counted on a Packard Top-Count. Non-specific binding counts are subtracted from each well and data is normalized to the maximum specific binding set at 100%. To calculate an IC 50 the curve is fitted using a non-linear regression model (XLfit) and the Ki is calculated using the Cheng-Prussoff equation.
# Chain of human V1a receptor (P37288 whole entry): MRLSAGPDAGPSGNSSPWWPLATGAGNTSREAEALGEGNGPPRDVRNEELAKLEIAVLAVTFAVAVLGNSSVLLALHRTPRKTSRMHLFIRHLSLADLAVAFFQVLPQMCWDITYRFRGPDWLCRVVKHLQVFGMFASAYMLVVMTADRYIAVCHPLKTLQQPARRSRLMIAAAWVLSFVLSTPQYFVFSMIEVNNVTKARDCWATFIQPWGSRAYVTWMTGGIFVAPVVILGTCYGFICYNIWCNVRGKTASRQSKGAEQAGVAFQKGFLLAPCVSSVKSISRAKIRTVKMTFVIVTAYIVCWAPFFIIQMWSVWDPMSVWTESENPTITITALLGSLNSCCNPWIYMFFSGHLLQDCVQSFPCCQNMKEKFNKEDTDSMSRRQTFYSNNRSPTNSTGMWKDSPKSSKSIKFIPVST
row,pKi hV1a,SMILES
1,7.7,"COc1ccc2c(c1)CC1(C2)OC(N2CCC3(CC2)OC(=O)c2ccccc23)=NC1=O (stereo not drawn) [Example 27, 1′-(5-methoxy-4′-oxo-1,3-dihydro-4′H-spiro[indene-2,5′-[1,3]oxazol]-2′-yl)-3H-spiro[2-benzofuran-1,4′-piperidin]-3-one]"
2,7.3,"CC1(C)OC2(CCN(C3=NC(=O)C4(Cc5ccccc5C4)O3)CC2)c2ccc[n+]([O-])c21 [Example 70, 2′-(7,7-dimethyl-1-oxido-1′H,7H-spiro[furo[3,4-b)pyridine-5,4′-piperidin]-1′yl)-1,3-dihydro-4′H-spiro[indene-2,5′-[1,3]oxazol]-4′-one]"
3,8.7,"Cc1cnc2c(c1)COC21CCN(C2=NC(=O)C3(Cc4ccccc4C3)O2)CC1 [Example 44, 2′-(3-methyl-1′H,5H-spiro[furo[3,4-b]pyridine-7,4′-piperidin]-1′-yl)-1,3-dihydro-4′H-spiro[indene-2,5′-[1,3]oxazol]-4′-one]"
4,9.4,"O=C1N=C(N2CCC3(CC2)OCc2ccccc23)OC12Cc1cc(F)c(F)cc1C2 [Example 34, 5,6-difluoro-2′-(1′H,3H-spiro[2-benzofuran-1,4′-piperidin]-1′-yl)-1,3-dihydro-4′H-spiro[indene-2,5′-[1,3]oxazol]-4′-one]"
5,7.6,"O=C1N=C(N2CCC3(CC2)OCc2ccccc23)O[C@]12CCc1ccccc12 [Example 19, (−)-2′-(1H,3H-spiro[2-benzofuran-1,4′-piperidin]-1′-yl)-2,3-dihydro-4′H-spiro[indene-1,5′-[1,3]oxazol]-4′-one]"
6,8.8,"Cc1ccc2c(c1)C1(CCN(C3=NC(=O)C4(Cc5ccccc5C4)O3)CC1)OC2=O [Example 7, 6-methyl-1′-(4′-oxo-1,3-dihydro-4′H-spiro[indene-2,5′-[1,3]oxazol]-2′-yl)-3H-spiro[2-benzofuran-1,4′-piperidin]-3-one]"
7,6.3,"O=C1N=C(N2CCC3(CC2)OCc2ccccc23)OC12Cc1cnc(CCl)cc1C2 (stereo not drawn) [Example 57, 3-(chloromethyl)-2′-(1′H,3H-spiro[2-benzofuran-1,4′-piperidin]-1′-yl)-5,7-dihydro-4′H-spiro[cyclopenta[c]pyridine-6,5′-[1,3]oxazol]-4′-one]"
8,6.5,"O=C1OC2(CCN(C3=NC(=O)C4(Cc5ccccc5C4)O3)CC2)c2c1ccnc2Cl [Example 55, 4-chloro-1′-(4-oxo-1,3-dihydro-4′H-spiro[indene-2,5′-[1,3]oxazol]-2′-yl)-1H-spiro[furo[3,4-c]pyridine-3,4′-piperidin]-1-one]"
9,9.3,"CC1(C)OC2(CCN(C3=NC(=O)C4(Cc5cccc(O)c5C4)O3)CC2)c2cccnc21 (stereo not drawn) [Example 69, 2′-(7,7-dimethyl-1′H,7H-spiro[furo[3,4-b]pyridine-5,4′-piperidin]-1′-yl)-4-hydroxy-1,3-dihydro-4′H-spiro[indene-2,5′-[1,3]oxazol]-4′-one]"
10,7.6,"O=C1N=C(N2CCC3(CC2)OCc2ccccc23)OC12Cc1cnc(CF)cc1C2 (stereo not drawn) [Example 59, 3-(fluoromethyl)-2′-(1′H,3H-spiro[2-benzofuran-1,4′-piperidin]-1′-yl)-5,7-dihydro-4′H-spiro[cyclopenta[c]pyridine-6,5′-[1,3]oxazol]-4′-one]"
11,8.5,"COc1ccc2c(c1)C(=O)OC21CCN(C2=NC(=O)C3(Cc4ccccc4C3)O2)CC1 [Example 8, 5-methoxy-1′-(4′-oxo-1,3-dihydro-4′H-spiro[indene-2,5′-[1,3]oxazol]-2′-yl)-3H-spiro[2-benzofuran-1,4′-piperidin]-3-one]"
12,8.7,"O=C1OC2(CCN(C3=NC(=O)C4(Cc5ccccc5C4)O3)CC2)c2c(F)cccc21 [Example 16, 7-fluoro-1′-(4′-oxo-1,3-dihydro-4′H-spiro[indene-2,5′-[1,3]oxazol]-2′-yl)-3H-spiro[2-benzofuran-1,4′-piperidin]-3-one]"
13,8.1,"COc1cccc2c1CC1(C2)OC(N2CCC3(CC2)OC(C)(C)c2ncccc23)=NC1=O (stereo not drawn) [Example 68, 2′-(7,7-dimethyl-1′H,7H-spiro[furo[3,4-b]pyridine-5,4′-piperidin]-1′-yl)-4-methoxy-1,3-dihydro-4′H-spiro[indene-2,5′-[1,3]oxazol]-4′-one]"
14,8.6,"Cc1ccc2c(c1)C[C@]1(C2)OC(N2CCC3(CC2)OC(=O)c2ccccc23)=NC1=O (stereo in doubt) [Example 24, (−)-1′-[5-methyl-4′-oxo-1,3-dihydro-4′H-spiro[indene-2,5′,-[1,3]oxazol]-2′-yl]-3H-spiro[2-benzofuran-1,4′-piperidin]-3-one]"
15,8.9,"O=C1OC2(CCN(C3=NC(=O)C4(Cc5cc(F)c(F)cc5C4)O3)CC2)c2ccccc21 [Example 35, 1′-(5,6-difluoro-4′-oxo-1,3-dihydro-4′H-spiro[indene-2,5′-[1,3]oxazol]-2′-yl)-3H-spiro[2-benzofuran-1,4′-piperidin]-3-one]"
16,8.2,Cc1cccc2c1COC21CCN(C2=NC(=O)C3(Cc4ccccc4C3)O2)CC1 [Example 4]
17,9.1,"Cc1ccc2c(n1)C1(CCN(C3=NC(=O)C4(Cc5ccccc5C4)O3)CC1)OC2 [Example 42, 2′-(2-methyl-1′H,5H-spiro[furo[3,4-b]pyridine-7,4′-piperidin]-1′-yl)-1,3-dihydro-4′H-spiro[indene-2,5′-[1,3]oxazol]-4′-one]"
18,8.3,"COc1ccc2c(c1)CC1(C2)OC(N2CCC3(CC2)OC(C)(C)c2ncccc23)=NC1=O (stereo not drawn) [Example 40, 2′-(7,7-dimethyl-1′H,7H-spiro[furo[3,4-b]pyridine-5,4′-piperidin]-1′-yl)-5-methoxy-1,3-dihydro-4′H-spiro[indene-2,5′-[1,3]oxazol]-4′-one]"
19,7.1,"Cc1cc2c(cc1C)CC1(C2)OC(N2CCC3(CC2)OCc2ccccc23)=NC1=O [Example 25, 5,6-dimethyl-2′-(1′H,3H-spiro[2-benzofuran-1,4′-piperidin]-1′-yl)-1,3-dihydro-4′H-spiro[indene-2,5′-[1,3]oxazol]-4′-one]"
20,7.3,"Cc1ccc2c(c1)C[C@@]1(C2)OC(N2CCC3(CC2)OC(=O)c2ccccc23)=NC1=O [Example 23, (+)-1′-[5-methyl-4′-oxo-1,3-dihydro-4′H-spiro[indene-2,5′-[1,3]oxazol]-2′-yl]-3H-spiro[2-benzofuran-1,4′-piperidin]-3-one]"
21,8.5,"O=C1N=C(N2CCC3(CC2)OCc2ccccc23)OC12Cc1cnc(C(F)(F)F)cc1C2 (stereo not drawn) [Example 61, 2′-(1′H,3H-spiro[2-benzofuran-1,4′-piperidin]-1′-yl)-3-(trifluoromethyl)-5,7-dihydro-4′H-spiro[cyclopenta[c]pyridine-6,5′-[1,3]oxazol]-4′-one]"
22,8.5,"CC1(C)OC2(CCN(C3=NC(=O)C4(Cc5ccccc5C4)O3)CC2)c2ccc(O)nc21 [Example 72, 2′-(2-hydroxy-7,7-dimethyl-1′H,7H-spiro[furo[3,4-b]pyridine-5,4′-piperidin]-1′-yl)-1,3-dihydro-4′H-spiro[indene-2,5′-[1,3]oxazol]-4′-one]"
23,8.6,"O=C1OC2(CCN(C3=NC(=O)C4(Cc5ccccc5C4)O3)CC2)c2cc(Cl)ccc21 [Example 17, 6-chloro-1′-(4-oxo-1,3-dihydro-4′H-spiro[indene-2,5′-[1,3]oxazol]-2′-yl)-3H-spiro[2-benzofuran-1,4′-piperidin]-3-one]"
24,10.2,"CC1(C)OC2(CCN(C3=NC(=O)C4(Cc5ccccc5C4)O3)CC2)c2cc(O)cnc21 [Example 71, 2′-(3-hydroxy-7,7-dimethyl-1′H,7H-spiro[furo[3,4-b]pyridine-5,4′-piperidin]-1′-yl)-1,3-dihydro-4′H-spiro[indene-2,5′-[1,3]oxazol]-4′-one]"
25,6.7,"O=C1OC2(CCN(C3=NC(=O)C4(CCCc5ccccc54)O3)CC2)c2ccccc21 (stereo not drawn) [Example 63, 1′-(4′-oxo-3,4-dihydro-2H,4′H-spiro[naphthalene-1,5′-[1,3]oxazol]-2′-yl)-3H-spiro[2-benzofuran-1,4′-piperidin]-3-one]"

# Same assay, conditions: membranes of HEK293 cells transiently transfected with human V1a receptor, Ki by Cheng-Prusoff, read-out: pKi hV1a (converted)
row,Ki,SMILES
1,3.98 nM,"O=C1OC2(CCN(C3=NC(=O)[C@@]4(CCc5ccccc5C4)O3)CC2)c2ccccc21 (single isomer, unassigned; enantiomer b) [Example 67, 1′-[4′-oxo-3,4-dihydro-1H,4′H-spiro[naphthalene-2,5′-[1,3]oxazol]-2′-yl]-1′H,3H-spiro[2-benzofuran-1,4′-piperidin]-3-one enantiomer B]"
2,0.794 nM,"O=C1OC2(CCN(C3=NC(=O)[C@]4(CCc5ccccc5C4)O3)CC2)c2ccccc21 (single isomer, unassigned; enantiomer a) [Example 66, 1′-[4′-oxo-3,4-dihydro-1H,4′H-spiro[naphthalene-2,5′-[1,3]oxazol]-2′-yl]-1′H,3H-spiro[2-benzofuran-1,4′-piperidin]-3-one enantiomer A]"
